pIC50: −log10 of the molar value.
Columns and labels:
[1] = target: T1, NAD-dependent protein deacetylase sirtuin-2 (Homo sapiens) (UniProt Q8IXJ6); assay: Inhibition of recombinant GST-tagged SIRT2 at 200 uM by Fluor de Lys fluorescence assay
T1 sequence (whole entry): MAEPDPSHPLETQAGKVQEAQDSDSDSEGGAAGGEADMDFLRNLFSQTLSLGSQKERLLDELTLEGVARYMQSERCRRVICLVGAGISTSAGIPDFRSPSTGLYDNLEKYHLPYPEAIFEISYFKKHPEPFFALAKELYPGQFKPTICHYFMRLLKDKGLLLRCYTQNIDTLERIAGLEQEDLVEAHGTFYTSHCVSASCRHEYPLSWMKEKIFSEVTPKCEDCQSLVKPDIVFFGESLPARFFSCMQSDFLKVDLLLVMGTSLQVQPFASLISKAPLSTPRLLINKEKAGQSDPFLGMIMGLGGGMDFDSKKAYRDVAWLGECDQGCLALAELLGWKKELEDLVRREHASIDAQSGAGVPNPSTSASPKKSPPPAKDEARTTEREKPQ

[2] = target: T2, NAD-dependent protein deacetylase sirtuin-2 (Homo sapiens, UniProt Q8IXJ6); assay: Inhibition of recombinant GST-tagged SIRT2 by Fluor de Lys fluorescence assay
T2 sequence (Q8IXJ6 whole entry): T1 sequence (whole entry)

Compound	inhibition [1] [%]	pIC50 [2]
CC(C)(NC(=O)/C=C/c1ccc(F)cc1)C(=O)NCCc1c[nH]c2ccccc12	61.3	3.98
COc1cccc(/C=C/C(=O)NC(C)(C)C(=O)NCCc2c[nH]c3ccccc23)c1	45.9	
C[C@H](NC(=O)/C=C/c1ccccc1)C(=O)NCCc1c[nH]c2ccccc12	59.6	3.96
O=C(NCCc1c[nH]c2ccccc12)[C@@H]1CCCN1C(=O)/C=C/c1ccccc1	36.6	
CC(C)(NC(=O)/C=C/c1ccc(O)cc1)C(=O)NCCc1cccnc1	2	
O=C(/C=C/c1ccccc1)NCCc1c[nH]c2ccccc12	58	3.76
O=C(NCCc1c[nH]c2ccc(OCc3ccccc3)cc12)[C@@H]1CCCN1C(=O)CCc1ccccc1	29.8	
COc1ccccc1/C=C/C(=O)NC(C)(C)C(=O)NCCc1c[nH]c2ccccc12	35	
CC(C)(NC(=O)/C=C/c1ccccc1)C(=O)NCCc1c[nH]c2ccccc12	49.5	4.00
O=C(/C=C/c1ccccc1)NCC(=O)NCCc1c[nH]c2ccc(OCc3ccccc3)cc12	32.9	
CC(C)(NC(=O)CCc1ccccc1)C(=O)NCCc1c[nH]c2ccccc12	12.5	
CC(C)(NC(=O)/C=C/c1cccc(O)c1)C(=O)NCCc1c[nH]c2ccccc12	46.7	
COc1ccc2[nH]cc(CCNC(=O)CNC(=O)/C=C/c3ccccc3)c2c1	24.2	
O=C(CCc1ccccc1)NCCc1c[nH]c2ccccc12	44.1	
CC(C)(NC(=O)CCc1ccc(O)cc1)C(=O)NCCc1c[nH]c2ccccc12	19.5	
O=C(/C=C/c1ccccc1)NCC(=O)NCCc1c[nH]c2ccccc12	22.7	
C[C@H](NC(=O)/C=C/c1ccccc1)C(=O)NCCc1c[nH]c2ccc(OCc3ccccc3)cc12	43.7	
C[C@H](NC(=O)/C=C/c1ccccc1)C(=O)NCCc1ccccc1	29.6	
CC(C)(NC(=O)/C=C/c1cccc([N+](=O)[O-])c1)C(=O)NCCc1c[nH]c2ccccc12	42.1	
C[C@H](NC(=O)CCc1ccccc1)C(=O)NCCc1c[nH]c2ccc(OCc3ccccc3)cc12	50.2	4.07
O=C(/C=C/c1ccc(O)cc1)NCCc1c[nH]c2ccccc12	44.3	
